Reference: patent US20100029613A1, “TREATMENT AND PREVENTION OF EPILEPSY” (University of Rochester, priority 2004, published 2010)
Values joined by “and” are separate entries in the source; they are usually repeats but may differ in a detail not shown here. Equal values may be shown once. Read-outs that look alike come from different tables or passages of the source.

Columns and labels:
[1] = test system: 4-AP induced astrocytic Ca^2+ signaling in cortex; assay: In vivo two-photon imaging of 4-AP induced astrocytic Ca^2+ signaling; set-up: species or system mice
[2] = test system: ATP-induced Ca^2+ waves in cortical astrocytes; assay: In vivo two-photon imaging of ATP-induced astrocytic Ca^2+ waves; set-up: species or system mice
cultured astrocytes [3] = assay: Astrocyte cell volume, confocal x-z line scans of calcein-loaded cultures; assay type: cell-based, rat
[4] = test system: cultured rat cortical astrocytes; assay: ATP-induced glutamate release, enzymatic fluorescence assay; assay type: cell-based; conditions: for glutamate release triggered by ATP agonists: 100 μM
[5] = test system: PDSs in hippocampal slices evoked by 4-AP; assay: 4-AP-evoked PDSs, field potential recording in hippocampal slices; assay type: cell-based, rat; conditions: for frequency and amplitude of PDSs: bath applied to slices with 4-AP induced seizures, NPPB 100 μM, FFA 100 μM
[6] = test system: cultured rat cortical astrocytes; assay: Hypotonicity (swelling)-induced glutamate release, enzymatic fluorescence assay; assay type: cell-based
cultured astrocytes [7] = assay: HPLC analysis of amino acid release from perfused astrocyte cultures; assay type: cell-based, rat
[8] = test system: glutamate-permeable channel in cultured astrocytes; assay: Whole-cell recording of ATP-induced current in cultured astrocytes; assay type: cell-based, rat; conditions: for effect on ATP-induced current: NaCl outside, BAPTA 10 mM in pipette, NPPB 100 μM, FFA 100 μM, gossypol 10 μM, OxATP 300 μM 1 h
[9] = test system: glutamate-permeable channel in astrocytes in hippocampal slices; assay: Whole-cell recording of ATP-induced inward current in astrocytes in hippocampal slices; assay type: cell-based, rat; conditions: for effect on ATP-induced inward current: 10 mM intracellular BAPTA, 100 μM NPPB in bath
[10] = test system: interneurons in hippocampal slices; assay type: cell-based, rat
cultured astrocytes [11] = assay type: cell-based, rat
astrocytes in suspension = assay type: cell-based, rat
[12] = test system: cultured astrocytes from Cx43 KO mice; assay type: cell-based
[13] = test system: astrocytes in hippocampal slices; assay type: cell-based, rat
[14] = test system: astrocytic Ca^2+ signaling in hippocampal slices; assay type: cell-based, rat
cultured astrocytes [15] = assay: Ca^2+ imaging in cultured astrocytes; assay type: cell-based, rat; conditions: absence of co-cultured neurons
hippocampus of adult rat = conditions: in vivo
[16] = test system: PDSs in hippocampal slices; assay: PDSs across all experimental seizure models (4-AP, Mg^2+-free, bicuculline, penicillin, Ca^2+-free); assay type: cell-based, rat
[17] = valproate 450 mg/kg, gabapentin 200 mg/kg, phenyloin 100 mg/kg i.p., 5-30 min after 4-AP
[18] = valproate 450 mg/kg, gabapentin 200 mg/kg, phenyloin 100 mg/kg i.p., iontophoretic ATP, non-epileptic mice
[19] = NPPB 100 μM, FFA 100 μM, gossypol 10 μM
[20] = 214 mOsM, same concentrations as for ATP-induced release

Molecule: CCCC(CCC)C(=O)O [valproate]
- 4-AP-induced Ca^2+ signaling reduced by [1, 17]: 69.7%
- ATP-evoked astrocytic Ca^2+ signaling (Ca^2+ waves) depressed by [2, 18]: 64.9%

Molecule: O=c1ccn([C@@H]2O[C@H](COP(=O)(O)OP(=O)(O)OP(=O)(O)O)[C@@H](O)[C@H]2O)c(=O)[nH]1 [UTP]
- increase in vertical sectional areas (cell swelling) (cultured astrocytes [3]): 5.75±0.57%
- glutamate release triggered by ATP agonists [4]: roughly equivalent to that of ATP

Molecule: O=C1NC(=O)C(c2ccccc2)(c2ccccc2)N1 [phenyloin]
- 4-AP-induced Ca^2+ signaling reduced by [1, 17]: 45.5%
- ATP-evoked astrocytic Ca^2+ signaling (Ca^2+ waves) depressed by [2, 18]: 23.8%

Molecule: O=C(O)c1cc([N+](=O)[O-])ccc1NCCCc1ccccc1 [NPPB, 5-nitro-2-(3-phenylpropylamino) benzoic acid]
- frequency and amplitude of PDSs [5]: markedly reduced
- glutamate release in presence of anion channel blocker [4, 19]: 0.22±0.14 fmol per cell
- reduction of glutamate release ([4]; after exposure to 10 μM ATP, NPPB 100 μM): 72.6±3.9%
- effect on glutamate release evoked by hypoosmotic challenge [6, 20]: decreased
- effect on glutamate, aspartate, glutamine and taurine release evoked by ATP (cultured astrocytes [7]): inhibited
- effect on ATP-induced current [8]: inhibited ATP-induced current
- effect on ATP-induced inward current [9]: attenuated

Molecule: 2′,3′-O-(4-benzoylbenzoyl)-ATP [Bz-ATP]
- increase in vertical sectional areas (cell swelling) (cultured astrocytes [3]; 100 μM agonist, 1 min): 1.35±1.05%
- glutamate release triggered by ATP agonists [4]: without effect

Molecule: CO/C1=C\C(C)=C\[C@@H](C)[C@@H](O)[C@@H](C)C/C(C)=C/C=C/[C@H](OC)[C@@H]([C@@H](C)[C@@H](O)[C@H](C)[C@@]2(O)C[C@@H](O)[C@H](C)[C@@H](C(C)C)O2)OC1=O [bafilomycin A1]
- effect on ATP-induced glutamate release [4]: no effect
- effect on glutamate release evoked by hypoosmotic challenge [6]: no effect
- frequency of inhibitory postsynaptic currents [10]: 0.2 per sec

Molecule: Nc1ncnc2c1ncn2[C@@H](C=O)O[C@@H](C=O)COP(=O)(O)OP(=O)(O)OP(=O)(O)O [OxATP, oxidized ATP]
- effect on ATP-induced glutamate release [4]: did not significantly reduce
- effect on ATP-induced current [8]: no significant effect

Molecule: Nc1ncnc2c1ncn2[C@@H]1O[C@H](COP(=O)(O)OP(=O)(O)OP(=O)(O)O)[C@@H](O)[C@H]1O [ATP]
- increase in vertical sectional areas (cell swelling) (cultured astrocytes [3]): 5.19±0.66%
- volume increase (cultured astrocytes [3]): 5.2%
- decrease in fluorescence-dilution emission (cultured astrocytes [11]): 9.6±1.3%
- increase in astrocytic cell volume (astrocytes in suspension): 3.5±0.6% and 3.0±0.5%
- glutamate release [4]: 2.49±0.21 fmol glutamate per cell
- glutamate release [12]: 3.02 fmol per cell
- glutamate release relative to astrocytes from wild-type littermates [12]: 90.7%
- increase in glutamate release (cultured astrocytes [7]): 2- to 5 fold
- ATP-triggered inward current, amplitude [8]: 250±33 pA
- ATP-triggered inward current, average amplitude [8]: 177±37 pA and 138±36 pA
- duration of the fluo-4 signal increase [13]: 8.7 ± 1.4 s
- increase in the fluo-4 signal over baseline [13]: 131±13%
- ATP-induced inward current [9]: 254±31 pA

Molecule: Nc1ncnc2c1ncn2[C@@H]1O[C@H](COP(=O)(O)CP(=O)(O)OP(=O)(O)O)[C@@H](O)[C@H]1O [αβ-meATP]
- glutamate release triggered by ATP agonists [4]: without effect

Molecule: methionine sulfoximine [MSO]
- effect on ATP-induced glutamate release [4]: increased glutamate release
- effect on glutamate release evoked by hypoosmotic challenge [6]: increased glutamate release

Molecule: O=C(O)CN(CC(=O)O)c1ccccc1OCCOc1ccccc1N(CC(=O)O)CC(=O)O [BAPTA, 1,2-bis (2-aminophenoxy) Ethane-N,N,N′,N′-tetraacetic acid]
- effect on glutamate release evoked by hypoosmotic challenge [6, 20]: failed to affect
- effect on ATP-induced current [8]: blocked
- effect on ATP-induced inward current [9]: attenuated

Molecule: Nc1ccncc1 [4-AP, 4-aminopyridine]
- astrocytic Ca^2+ signaling (Ca^2+ oscillations) [14]: potently initiated astrocytic Ca^2+ signaling
- Ca^2+ signaling in cultured astrocytes (cultured astrocytes [15]): promptly induced Ca^2+ signaling
- extracellular concentration of glutamate (hippocampus of adult rat): 6 to 10 µM
- increase in release of amino acid osmolytes (glutamate, aspartate, glutamine, taurine) (hippocampus of adult rat): 3-8 fold

Molecule: N[C@H](C(=O)O)[C@H](OCc1ccccc1)C(=O)O [TBOA, D,L-threo-beta-benzyloxyaspartate]
- frequency and amplitude of PDSs compared with TTX alone [5]: increased the frequency and amplitude of PDSs significantly
- effect on ATP-induced glutamate release [4]: without effect
- effect on glutamate release evoked by hypoosmotic challenge [6, 20]: without effect

Molecule: NC(CCCP(=O)(O)O)C(=O)O (stereo not shown) [APV, 2-amino-5-phosphonovalerate]
- frequency and amplitude of PDSs compared with TTX alone [5]: highly significant reduction

Molecule: COc1ccc2c(c1)c(CC(=O)O)c(C)n2C(=O)c1ccc(Cl)cc1 [Indomethacin]
- effect on ATP-induced glutamate release [4]: did not reduce

Molecule: N#Cc1cc2c(cc1[N+](=O)[O-])=NC(=O)C(=O)N=2 [CNQX, 6-cyano-7-nitroquinoxaline-2,3-dione]
- frequency and amplitude of PDSs compared with TTX alone [5]: significant decrease

Molecule: CC(=O)OCOC(=O)CN(CC(=O)OCOC(C)=O)c1ccccc1OCCOc1ccccc1N(CC(=O)OCOC(C)=O)CC(=O)OCOC(C)=O [BAPTA/AM, 1,2-bis(2-aminophenoxy)ethane-N,N,N′,N′-tetraacetate (BAPTA)/AM]
- ATP-induced increase in vertical sectional areas attenuated to (cultured astrocytes [3]; ATP 100 μM, BAPTA/AM 20 μM preloaded): 1.63±0.73%
- effect on ATP-induced glutamate release [4]: attenuated the release
- effect on glutamate, aspartate, glutamine and taurine release evoked by ATP (cultured astrocytes [7]): inhibited

Molecule: C/C=C(/C)C(=O)O[C@H]1C(C)=C2[C@H]([C@@H]1OC(=O)CCCCCCC)[C@@](C)(OC(C)=O)C[C@H](OC(=O)CCC)[C@@]1(O)[C@H]2OC(=O)[C@@]1(C)O [thapsigargin]
- effect on ATP-induced glutamate release [4]: attenuated the release
- effect on glutamate release evoked by hypoosmotic challenge [6, 20]: failed to affect

Molecule: NCC1(CC(=O)O)CCCCC1 [gabapentin]
- 4-AP-induced Ca^2+ signaling reduced by ([1]; mouse, in vivo): 55.6%
- ATP-evoked astrocytic Ca^2+ signaling (Ca^2+ waves) depressed by ([2]; mouse, in vivo): 53.8%

Molecule: CCOc1ccc(Nc2ccc(/C(=C3C=C/C(=[N+](/CC)Cc4cccc(S(=O)(=O)[O-])c4)C=C/3C)c3ccc(N(CC)Cc4cccc(S(=O)(=O)[O-])c4)cc3C)cc2)cc1.[Na+] [BBG, Brilliant Blue G]
- ATP-induced glutamate release ([4]; BBG 1 μM): 106.4±19.1 % of control
- amplitude of the ATP-induced inward current ([9]; BBG 1 μM, P=0.8): 106.8±22.0%

Molecule: O=C(O)c1ccccc1Nc1cccc(C(F)(F)F)c1 [FFA, flufenamic acid]
- frequency and amplitude of PDSs [5]: markedly reduced
- glutamate release in presence of anion channel blocker [4, 19]: 0.00±0.00 fmol per cell
- effect on glutamate release evoked by hypoosmotic challenge [6, 20]: decreased
- effect on ATP-induced current [8]: inhibited ATP-induced current

Molecule: C[C@@](N)(C(=O)O)c1ccc(C(=O)O)cc1 [(S)-MCPG, (S)-Alpha-methyl-4-carboxy-phenylglycine]
- frequency and amplitude of PDSs compared with TTX alone [5]: failed to reduce

Molecule: Nc1c(S(=O)(=O)O)cc(Nc2ccc(Nc3nc(Cl)nc(Nc4cccc(S(=O)(=O)O)c4)n3)c(S(=O)(=O)O)c2)c2c1C(=O)c1ccccc1C2=O [Reactive Blue 2]
- effect on ATP-induced glutamate release [4]: blocked the release

Molecule: NC1=N[C@H](O)[C@H]2[C@H]3O[C@]4(O)O[C@@H]([C@@H](O)[C@@]2(N1)[C@@H]4O)[C@]3(O)CO [TTX, tetrodotoxin]
- decrease of relative frequency of PDSs compared with 4-AP alone [5]: 32±8%
- frequency and amplitude of 4-AP induced PDSs [5]: only slightly decreased
- frequency and amplitude of PDSs reduced by [5]: 20-35%
- frequency of PDSs reduced to [16]: 70-90 % of total
- frequency or amplitude of astrocytic Ca^2+ oscillations [14]: did not reduce

Molecule: Cc1cc2c(C(C)C)c(O)c(O)c(C=O)c2c(O)c1-c1c(C)cc2c(C(C)C)c(O)c(O)c(C=O)c2c1O [gossypol]
- glutamate release in presence of anion channel blocker [4]: 0.07±0.07 fmol per cell
